Data reported in patent US12480137B2, “Plants having increased tolerance to herbicides” (BASF SE, priority 2014, dated 2025).

Tests used:
Format in all cases: in vivo, Arabidopsis thaliana
[1] = test system: A. thaliana WT L. erecta; assay: Greenhouse phytotox, pre-emergent treatment
Experimental: (§1) Additionally, M2 or M3 Arabidopsis plants are tested for improved tolerance to cellulose biosynthesis-inhibiting herbicides in greenhouse studies (e. g. with the following cellulose biosynthesis-inhibiting herbicides: 6-cyclopentyl-N4-(2,3,4,5,6-pentafluorophenyl)-1,3,5-triazine-2,4-diamine; 6-(1-fluoro-1-methyl-ethyl)-N4-(2,3,4,5,6-pentafluorophenyl)-1,3,5-triazine-2,4-diamine; N4-(4-chloro-3,5,6-trifluoro-2-pyridyl)-6-(1-fluoro-1-methyl-ethyl)-1,3,5-triazine-2,4-diamine; 6-(2,6-difluorophenyl)-N4-(2,3,5,6-tetrafluorophenyl)-1,3,5-triazine-2,4-diamine; N4-(4-bromo-2,3,5,6-tetrafluoro-phenyl)-6-(1-fluoro-1-methyl-ethyl)-1,3,5-triazine-2,4-diamine.

[2] = test system: Cesa3_S1040L, fpx1-1 mutant line; assay: Greenhouse phytotox, pre-emergent treatment
Experimental: as §1

[3] = test system: Cesa1_G1009D, fpx2-3 mutant line; assay: Greenhouse phytotox, pre-emergent treatment
Experimental: as §1

[4] = test system: Cesa1_G1013R, fpx2-1 mutant line; assay: Greenhouse phytotox, pre-emergent treatment
Experimental: as §1

[5] = test system: Cesa3_S1037F, fpx1-2 mutant line; assay: Greenhouse phytotox, pre-emergent treatment
Experimental: as §1

[6] = test system: Cesa3_S983F, fpx1-3 mutant line; assay: Greenhouse phytotox, pre-emergent treatment
Experimental: as §1

[7] = test system: Cesa1_P1010L, fpx2-2 mutant line; assay: Greenhouse phytotox, pre-emergent treatment
Experimental: as §1

[8] = test system: wildtype Arabidopsis plants; assay: Growth inhibition of Arabidopsis lines in 48-well plates, tolerance factor from IC50; conditions: growth inhibition seven to ten days after seeding
Excerpt: (§2) For selection of cellulose biosynthesis inhibitor resistant plants EMS mutagenized seed populations of Arabidopsis thaliana are used. EMS mutagenized seed populations are either bought from Lehle Seeds (1102 South Industrial Blvd. Suite D, Round Rock, Texas USA) or are generated as described elsewhere (Heim D R, et. al. (1989) Plant Physiol. 90: 146-150). Causative mutations in CESA wildtype sequences (e.g. SEQ ID NO: 1 or 3) are identified as described by Scheible W R et. al. (2001, Proc. Natl. Acad. of Sci. 98: 10079-10084), McCourt et. al. (WO2013/142968) or with the use of next generation sequencing methods as described by Austin R S, et. al. (2011) Plant Journal 67: 715-725.
(§3) Selected Arabidopsis thaliana lines were assayed for improved resistance to azines like 6-cyclopentyl-N4-(2,3,4,5,6-pentafluorophenyl)-1,3,5-triazine-2,4-diamine; 6-(1-fluoro-1-methyl-ethyl)-N4-(2,3,4,5,6-pentafluorophenyl)-1,3,5-triazine-2,4-diamine; 6-cyclohexyl-N2-(2,3,4,5,6-pentafluorophenyl)-1,3,5-triazine-2,4-diamine; 6-(2,6-difluorophenyl)-N2-(2,3,5,6-tetrafluorophenyl)-1,3,5-triazine-2,4-diamine; N2-(4-chloro-3,5,6-trifluoro-2-pyridyl)-6-(1-fluoro-1-methyl-ethyl)-1,3,5-triazine-2,4-diamine in 48-well plates. Therefore, M2 or M3 seeds are surface sterilized by stirring for 5 min in ethanol+water (70+30 by volume), rinsing one time with ethanol+water (70+30 by volume) and two times with sterile, deionized water. The seeds are resuspended in 0.1% agar dissolved in water (w/v) Four to five seeds per well are plated on solid nutrient medium consisting of half-strength murashige skoog nutrient solution, pH 5.8 (Murashige and Skoog (1962) Physiologia Plantarum 15: 473-497). Compounds are dissolved in dimethylsulfoxid (DMSO) and added to the medium prior solidification (final DMSO concentration 0.1%). Multi well plates are incubated in a growth chamber at 22° C., 75% relative humidity and 110 μmol Phot*m^−2*s^−1 with 14:10 h light:dark photoperiod. Growth inhibition is evaluated seven to ten days after seeding in comparison to wild type plants. Tolerance factors are calculated based on IC50 values of growth inhibition of transformed versus non-transformed Arabidopsis plants (Table 3).

[9] = test system: Arabidopsis mutant line Cesa3_S1040L; assay: as above; conditions: growth inhibition seven to ten days after seeding
Excerpt: as §2, §3

[10] = test system: Arabidopsis mutant line Cesa1_G1013R; assay: as above; conditions: growth inhibition seven to ten days after seeding
Excerpt: as §2, §3

[11] = test system: Arabidopsis mutant line Cesa1_P1010L; assay: as above; conditions: growth inhibition seven to ten days after seeding
Excerpt: as §2, §3

[12] = test system: Arabidopsis mutant line Cesa3_S1037F; assay: as above; conditions: growth inhibition seven to ten days after seeding
Excerpt: as §2, §3

[13] = test system: Arabidopsis mutant line Cesa3_S983F; assay: as above; conditions: growth inhibition seven to ten days after seeding
Excerpt: as §2, §3

[14] = test system: Arabidopsis mutant line Cesa1_G1009D; assay: as above; conditions: growth inhibition seven to ten days after seeding
Excerpt: as §2, §3

SMILES | Phytotox value on a scale from 0-100 (100 is 100% damage) ([1]; 0.98 g ai/ha) | Phytotox value on a scale from 0-100 (100 is 100% damage) ([1]; 3.91 g ai/ha) | Phytotox value on a scale from 0-100 (100 is 100% damage) ([2]; 0.98 g ai/ha) | Phytotox value on a scale from 0-100 (100 is 100% damage) ([2]; 3.91 g ai/ha) | Phytotox value on a scale from 0-100 (100 is 100% damage) ([3]; 0.98 g ai/ha) | Phytotox value on a scale from 0-100 (100 is 100% damage) ([3]; 3.91 g ai/ha) | Phytotox value on a scale from 0-100 (100 is 100% damage) ([4]; 0.98 g ai/ha) | Phytotox value on a scale from 0-100 (100 is 100% damage) ([4]; 3.91 g ai/ha) | Phytotox value on a scale from 0-100 (100 is 100% damage) ([5]; 0.98 g ai/ha) | Phytotox value on a scale from 0-100 (100 is 100% damage) ([5]; 3.91 g ai/ha) | Phytotox value on a scale from 0-100 (100 is 100% damage) ([6]; 0.98 g ai/ha) | Phytotox value on a scale from 0-100 (100 is 100% damage) ([6]; 3.91 g ai/ha) | Phytotox value on a scale from 0-100 (100 is 100% damage) ([7]; 0.98 g ai/ha) | Phytotox value on a scale from 0-100 (100 is 100% damage) ([7]; 3.91 g ai/ha) | Relative tolerance rate (wildtype = 1.0) [8] | Relative tolerance rate (wildtype = 1.0) [9] | Relative tolerance rate (wildtype = 1.0) [10] | Relative tolerance rate (wildtype = 1.0) [11] | Relative tolerance rate (wildtype = 1.0) [12] | Relative tolerance rate (wildtype = 1.0) [13] | other results
Nc1nc(Nc2c(F)c(F)cc(F)c2F)nc(-c2c(F)cccc2F)n1 [6-(2,6-difluorophenyl)-N2-(2,3,5,6-tetrafluorophenyl)-1,3,5-triazine-2,4-diamine] | 30 | 70 | 13 | 8 | 65 | 38 | 15 | 35 | 28 | 65 | 18 | 35 | 48 | 35 | 1 | 13 | 13 | 2 | 1 | 1 | Phytotox value on a scale from 0-100 (100 is 100% damage) ([1]; 15.63 g ai/ha): 90; Phytotox value on a scale from 0-100 (100 is 100% damage) ([1]; 62.5 g ai/ha): 100; Phytotox value on a scale from 0-100 (100 is 100% damage) ([2]; 15.63 g ai/ha): 25; Phytotox value on a scale from 0-100 (100 is 100% damage) ([2]; 62.5 g ai/ha): 28; Phytotox value on a scale from 0-100 (100 is 100% damage) ([3]; 15.63 g ai/ha): 18; Phytotox value on a scale from 0-100 (100 is 100% damage) ([3]; 62.5 g ai/ha): 95; Phytotox value on a scale from 0-100 (100 is 100% damage) ([4]; 15.63 g ai/ha): 28; Phytotox value on a scale from 0-100 (100 is 100% damage) ([4]; 62.5 g ai/ha): 40; Phytotox value on a scale from 0-100 (100 is 100% damage) ([5]; 15.63 g ai/ha): 73; Phytotox value on a scale from 0-100 (100 is 100% damage) ([5]; 62.5 g ai/ha): 99; Phytotox value on a scale from 0-100 (100 is 100% damage) ([6]; 15.63 g ai/ha): 43; Phytotox value on a scale from 0-100 (100 is 100% damage) ([6]; 62.5 g ai/ha): 33; Phytotox value on a scale from 0-100 (100 is 100% damage) ([7]; 15.63 g ai/ha): 65; Phytotox value on a scale from 0-100 (100 is 100% damage) ([7]; 62.5 g ai/ha): 98; Relative tolerance rate (wildtype = 1.0) [14]: 1
CC(C)(F)c1nc(N)nc(Nc2nc(F)c(F)c(Cl)c2F)n1 [N2-(4-chloro-3,5,6-trifluoro-2-pyridyl)-6-(1-fluoro-1-methyl-ethyl)-1,3,5-triazine-2,4-diamine] | 83 | 99 | 78 | 53 | 93 | 99 | 70 | 80 | 25 | 25 | 48 | 13 | 78 | 98 | 1 | 4 | 10 | 1 | 10 | 4 | Phytotox value on a scale from 0-100 (100 is 100% damage) ([1]; 0.0625 g ai/ha): 45; Phytotox value on a scale from 0-100 (100 is 100% damage) ([1]; 0.25 g ai/ha): 60; Phytotox value on a scale from 0-100 (100 is 100% damage) ([2]; 0.0625 g ai/ha): 13; Phytotox value on a scale from 0-100 (100 is 100% damage) ([2]; 0.25 g ai/ha): 15; Phytotox value on a scale from 0-100 (100 is 100% damage) ([3]; 0.0625 g ai/ha): 30; Phytotox value on a scale from 0-100 (100 is 100% damage) ([3]; 0.25 g ai/ha): 43; Phytotox value on a scale from 0-100 (100 is 100% damage) ([4]; 0.0625 g ai/ha): 40; Phytotox value on a scale from 0-100 (100 is 100% damage) ([4]; 0.25 g ai/ha): 50; Phytotox value on a scale from 0-100 (100 is 100% damage) ([5]; 0.0625 g ai/ha): 5; Phytotox value on a scale from 0-100 (100 is 100% damage) ([5]; 0.25 g ai/ha): 15; Phytotox value on a scale from 0-100 (100 is 100% damage) ([6]; 0.0625 g ai/ha): 23; Phytotox value on a scale from 0-100 (100 is 100% damage) ([6]; 0.25 g ai/ha): 55; Phytotox value on a scale from 0-100 (100 is 100% damage) ([7]; 0.0625 g ai/ha): 50; Phytotox value on a scale from 0-100 (100 is 100% damage) ([7]; 0.25 g ai/ha): 25; Relative tolerance rate (wildtype = 1.0) [14]: 1
